Key:
Assay in all cases: relative viability (nuclei count vs DMSO), 5 days (fraction); higher = more cells survive
Decitabine + AZD7762 = compound: Nc1ncn([C@H]2C[C@H](O)[C@@H](CO)O2)c(=O)n1 [Decitabine] + NC(=O)Nc1cc(-c2cccc(F)c2)sc1C(=O)N[C@H]1CCCNC1 [AZD7762] (partner 0.2 µM)
In short: (§1)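 Lung cancer cell lines were seeded in 1536-well plates and dosed by pin tool the next day, with either a single drug or a fixed anchor-drug dose combined with five library-drug doses (not always all listed) spaced in √10 steps. Five days later, one step fixed the cells and stained their nuclei (final 0.05% Triton X-100, 1% formaldehyde, 1 ug/ml Hoechst), and nuclei were counted on 4× images. Relative viability is the nuclei count in treated wells divided by the count in vehicle wells, and each value is the median of duplicate plates.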

Decitabine + Phenformin = compound: Nc1ncn([C@H]2C[C@H](O)[C@@H](CO)O2)c(=O)n1 [Decitabine] + N=C(N)NC(=N)NCCc1ccccc1 [Phenformin] (partner 250 µM)
In short: as §1

Decitabine + Olaparib = compound: Nc1ncn([C@H]2C[C@H](O)[C@@H](CO)O2)c(=O)n1 [Decitabine] + O=C(c1cc(Cc2n[nH]c(=O)c3ccccc23)ccc1F)N1CCN(C(=O)C2CC2)CC1 [Olaparib] (partner 8 µM)
In short: as §1

Halofuginone + Olaparib = compound: O=C(C[C@H]1NCCC[C@@H]1O)Cn1cnc2cc(Br)c(Cl)cc2c1=O (racemic) [Halofuginone] + O=C(c1cc(Cc2n[nH]c(=O)c3ccccc23)ccc1F)N1CCN(C(=O)C2CC2)CC1 [Olaparib] (partner 8 µM)
In short: as §1

Cell Line	relative viability (Decitabine + AZD7762; first compound 0.04 µM)	relative viability (Decitabine + AZD7762; first compound 0.1265 µM)	relative viability (Decitabine + AZD7762; first compound 0.4 µM)	relative viability (Decitabine + AZD7762; first compound 4 µM)	relative viability (Decitabine + Phenformin; first compound 0.04 µM)	relative viability (Decitabine + Phenformin; first compound 0.1265 µM)	relative viability (Decitabine + Phenformin; first compound 0.4 µM)	relative viability (Decitabine + Phenformin; first compound 4 µM)	relative viability (Decitabine + Olaparib; first compound 0.04 µM)	relative viability (Decitabine + Olaparib; first compound 0.1265 µM)	relative viability (Decitabine + Olaparib; first compound 0.4 µM)	relative viability (Decitabine + Olaparib; first compound 4 µM)	relative viability (Halofuginone + Olaparib; first compound 0.001 µM)	relative viability (Halofuginone + Olaparib; first compound 0.003162 µM)	relative viability (Halofuginone + Olaparib; first compound 0.01 µM)	relative viability (Halofuginone + Olaparib; first compound 0.03162 µM)	relative viability (Halofuginone + Olaparib; first compound 0.1 µM)	relative viability (Decitabine + Phenformin; first compound 1.265 µM)	relative viability (Decitabine + Olaparib; first compound 1.265 µM)	relative viability (Decitabine + AZD7762; first compound 1.265 µM)
201T	0.463	0.514	0.38	0.353	0.42	0.454	0.518	0.409	0.555	0.494	0.406	0.781	0.851	0.906	0.853	0.827	0.83			
A549					0.145	0.139	0.157	0.0645	0.15	0.112	0.049	0.0404	0.48	0.413	0.378	0.288	0.262	0.0732	0.0246	
A-427	0.464	0.512	0.425	0.285	0.239	0.265	0.19	0.164	0.474	0.443	0.281	0.217	0.826	0.695	0.77	0.704	0.597	0.18	0.248	0.278
ABC-1	0.668	0.814	0.712	0.84	0.238	0.231	0.25	0.212		0.616	0.77	0.573	1.06	0.793	0.617	0.847	1.09	0.252	0.473	0.701
BEN	0.691	0.791	0.55	0.664	0.28	0.261	0.259	0.245	0.666	0.595	0.457	0.409	1.06	1	1.12	1.02	0.626	0.239	0.43	0.586
CAL-12T	0.638	0.578	0.48	0.453	0.517	0.633		0.339	0.438	0.412	0.257	0.227	0.785	0.717	0.709	0.754	0.548	0.372	0.266	0.443
COR-L23					0.362	0.311	0.303	0.253	0.166	0.181	0.177	0.119	0.349	0.348	0.346	0.292	0.171	0.253	0.143	
COR-L 105					0.308	0.441	0.383	0.421	0.609	0.546	0.524	0.403	0.695	0.607	0.698	0.664	0.625	0.308	0.505	
Calu-6									0.234	0.285	0.182	0.14	0.611		0.584	0.327	0.135		0.166	
ChaGo-K-1	0.725	0.679	0.469	0.408	0.435	0.413	0.301	0.336	0.28	0.28	0.222	0.242	0.397	0.452	0.407	0.398	0.442	0.271	0.198	0.442
EBC-1									0.318	0.197	0.187	0.18	0.752	0.706	0.532	0.303	0.169		0.157	
EKVX	0.505	0.611	0.549	0.33	0.223	0.22	0.227	0.202	0.551	0.454	0.322	0.232	0.861	0.849	0.789	0.843	0.645	0.177	0.252	0.394
EMC-BAC-2		1.15	0.908	0.846	0.514	0.541	0.462	0.406		0.405	0.371	0.294	0.538	0.486	0.471	0.476	0.299	0.414	0.298	0.911
EPLC-272H	0.255	0.195		0.221		0.26	0.0458	0.199	0.32	0.255		0.337	1.09	0.775	0.583	0.764	0.445	0.223	0.15	0.158
H3255	0.662	0.876	0.617	0.601		0.339	0.364	0.347	0.487	0.469	0.415	0.378	0.622	0.563	0.522	0.514	0.544	0.291	0.43	0.682
HARA	0.353	0.464	0.165	0.315	0.307	0.36	0.236	0.125	0.379	0.248	0.28	0.168	1.16	0.885	0.572	0.664	0.345	0.148	0.147	0.203
HCC-15	1.12	0.777	0.752	0.747	0.448	0.49	0.252	0.333	0.472	0.363	0.253	0.168	0.765	0.82	0.727	0.678	0.665	0.327	0.178	0.632
HCC-44	1.08	0.974	0.932	1.06	0.136	0.196	0.0892	0.13	0.808	0.738	0.627	0.757	0.97	1.03	0.987	0.962	0.942	0.136	0.739	1.06
HCC-78	0.549	0.605	0.565	0.466	0.626	0.634	0.593	0.477	0.458	0.433	0.382	0.241	1.01	0.74	0.849	0.858	0.532	0.505	0.272	0.474
HCC-366	0.208	0.276	0.114	0.0424	0.505	0.528	0.392	0.155	0.11	0.0915	0.066	0.0247	0.337	0.319	0.351	0.328	0.0775	0.244	0.0346	0.0535

Cell Line	relative viability (Decitabine + AZD7762; first compound 0.04 µM)	relative viability (Decitabine + AZD7762; first compound 0.1265 µM)	relative viability (Decitabine + AZD7762; first compound 0.4 µM)	relative viability (Decitabine + AZD7762; first compound 4 µM)	relative viability (Decitabine + Phenformin; first compound 0.04 µM)	relative viability (Decitabine + Phenformin; first compound 0.1265 µM)	relative viability (Decitabine + Phenformin; first compound 0.4 µM)	relative viability (Decitabine + Phenformin; first compound 4 µM)	relative viability (Decitabine + Olaparib; first compound 0.04 µM)	relative viability (Decitabine + Olaparib; first compound 0.1265 µM)	relative viability (Decitabine + Olaparib; first compound 0.4 µM)	relative viability (Decitabine + Olaparib; first compound 4 µM)	relative viability (Halofuginone + Olaparib; first compound 0.001 µM)	relative viability (Halofuginone + Olaparib; first compound 0.003162 µM)	relative viability (Halofuginone + Olaparib; first compound 0.01 µM)	relative viability (Halofuginone + Olaparib; first compound 0.03162 µM)	relative viability (Halofuginone + Olaparib; first compound 0.1 µM)	relative viability (Decitabine + Phenformin; first compound 1.265 µM)	relative viability (Decitabine + Olaparib; first compound 1.265 µM)	relative viability (Decitabine + AZD7762; first compound 1.265 µM)
HCC-827	0.113	0.169	0.188	0.193	0.17	0.288	0.283	0.289	0.146	0.279	0.218	0.205	0.673	0.588	0.667	0.631	0.599	0.214	0.182	0.173
HOP-62	0.361	0.297	0.143	0.147	0.464	0.374	0.175	0.148	0.108	0.141	0.0882	0.132	0.493	0.473	0.415	0.296	0.129	0.168	0.0978	0.117
IA-LM									0.288	0.197	0.139	0.129	0.848	0.913	0.768	0.656	0.305		0.129	
LC-2-ad	0.769	0.846	0.925	0.63	0.512	0.552	0.509	0.416	0.441	0.402	0.397	0.274	0.675	0.697	0.692	0.678	0.669	0.419	0.343	0.491
LCLC-97TM1	0.0916	0.108	0.0741	0.0907	0.304	0.308	0.312	0.124	0.0932	0.124	0.0895	0.335	0.445	0.314	0.392	0.387	0.233	0.293	0.0603	0.102
LCLC-103H	0.746	0.728	0.649	0.551	0.319	0.36	0.293	0.315	0.688	0.69	0.498	0.742	0.794	0.779	0.778	0.747	0.737	0.328	0.491	0.639
NCI-H520					0.42	0.347	0.37	0.288	0.201	0.297	0.251	0.167	0.324	0.291	0.303	0.378	0.187	0.328	0.188	
NCI-H661					0.289	0.282	0.267	0.277	0.56	0.459	0.409	0.338	0.797	0.74	0.671	0.666	0.566	0.281	0.345	
NCI-H1299									0.963	0.962	0.884	0.578	1	1.05	0.929	0.851	0.418		0.655	
NCI-H1563					0.631	0.75	0.764	0.74										0.658		
NCI-H1623					0.539	0.507	0.5	0.462										0.492		
NCI-H1648	0.692	0.672	0.469	0.428					0.679	0.516	0.484	0.301	1.25	1.15	1.21	0.979	0.936		0.424	0.448
NCI-H1650					0.309	0.386	0.303	0.361	0.509	0.367	0.259	0.207	0.95	0.806	0.836	0.677	0.538	0.246	0.2	
NCI-H1703	0.111	0.0883	0.132	0.102					0.21	0.21	0.287	0.166	0.495	0.483	0.482	0.289	0.2		0.145	0.152
NCI-H2009					0.433	0.4	0.333	0.286	0.475	0.261	0.322	0.293	0.744	0.664	0.66	0.706	0.541	0.282	0.215	
NCI-H2023					0.31	0.346	0.222	0.161	0.137	0.15	0.126	0.0823	0.509	0.565	0.405	0.239	0.0514	0.163	0.0911	
NCI-H2228					0.271	0.252	0.103	0.192	0.194	0.235	0.104	0.157	0.669	0.627	0.461	0.184	0.124	0.154	0.145	
SK-LU-1					0.42	0.448	0.278	0.297	0.274	0.244	0.214	0.253	0.488	0.444	0.477	0.454	0.312	0.344	0.247	
SK-MES-1					0.535	0.553	0.346	0.291	0.288	0.362	0.299	0.244	0.768	0.69	0.713	0.345	0.174	0.271	0.179	
SW 1573					0.32	0.327	0.323	0.168	0.257	0.239	0.17	0.111	0.496	0.422	0.526	0.232	0.138	0.287	0.127	

From the supplement of paper PMC10307832
